# Laboratory results published in US20240041042A1, “1-(PYRIDYL)-5-AZINYLPYRAZOLE DERIVATIVES, AND THEIR USE FOR CONTROL OF UNDESIRED PLANT GROWTH” (Bayer Aktiengesellschaft, priority 2020, published 2024).
# How the values were obtained:
# Assay type in all cases: in vivo
# [1] = system: Matricaria inodora (MATIN); test: Post-emergence herbicidal action against MATIN; settings: dosage 320 g/ha
# Summary of the method: (§1)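 Greenhouse plants sprayed at the one-leaf stage, 2–3 weeks after sowing, with WP or EC formulations plus 0.5% additive at 600 l/ha water. Activity rated visually after about 3 weeks versus untreated controls (100% = dead, 0% = like control), at 320 g/ha or lower.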
# Oryza sativa (ORYSA) = settings: crop plant compatibility, 80 g/ha, effect in comparison to untreated controls
# Summary of the method: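 Greenhouse crops in sandy loam sprayed post-emergence at the one-leaf stage, 2–3 weeks after sowing, with WP or EC formulations in water plus 0.5% additive at 600 l/ha. Damage rated visually about 3 weeks later versus untreated controls (0% = like control, 100% = dead); suffixes a–c denote different doses.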
# [2] = system: Amaranthus retroflexus (AMARE); test: Pre-emergence herbicidal action against AMARE; settings: visual scoring after about 3 weeks vs untreated controls
# Summary of the method: (§2)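 Pre-emergence soil-surface spray of compound, formulated as wettable powder or emulsion concentrate, in aqueous suspension or emulsion with 0.5% additive (600 l/ha; rate 320 g/ha or less). Activity rated visually after roughly 3 weeks in the greenhouse as a percentage of untreated controls, 0% meaning no difference.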
# [3] = system: Digitaria sanguinalis (DIGSA); test: Post-emergence herbicidal action against DIGSA; settings: visual rating about 3 weeks after treatment
# Summary of the method: as §1
# [4] = system: Digitaria sanguinalis (DIGSA); test: Pre-emergence herbicidal action against DIGSA
# Summary of the method: as §2
# Lolium rigidum (LOLRI) [5] = test: Pre-emergence herbicidal action against LOLRI
# Summary of the method: as §2
# [6] = system: Echinochloa crus-galli (ECHCG); test: Pre-emergence herbicidal action against ECHCG
# Summary of the method: as §2
# [7] = system: Alopecurus myosuroides (ALOMY); test: Pre-emergence herbicidal action against ALOMY; settings: scored visually after about 3 weeks, 100% = plants have died
# Summary of the method: as §2
# Viola tricolor (VIOTR) [8] = test: Pre-emergence herbicidal action against VIOTR
# Summary of the method: as §2
# Setaria viridis (SETVI) [9] = test: Pre-emergence herbicidal action against SETVI
# Summary of the method: as §2
# Avena fatua (AVEFA) [10] = test: Pre-emergence herbicidal action against AVEFA; settings: visual scoring after about 3 weeks vs untreated controls
# Summary of the method: as §2
# [11] = system: Abutilon theophrasti (ABUTH); test: Post-emergence herbicidal action against ABUTH; settings: 320 g/ha, visual rating about 3 weeks after treatment vs untreated controls (100% = plants have died, 0% = like control plants)
# Summary of the method: as §1
# [12] = system: Polygonum convolvulus (POLCO); test: Pre-emergence herbicidal action against POLCO
# Summary of the method: as §2
# [13] = system: Pharbitis purpurea (PHBPU); test: Post-emergence herbicidal action against PHBPU
# Summary of the method: as §1
# [14] = system: Abutilon theophrasti (ABUTH); test: Pre-emergence herbicidal action against ABUTH; settings: 100% = plants have died
# Summary of the method: as §2
# [15] = system: Pharbitis purpurea (PHBPU); test: Pre-emergence herbicidal action against PHBPU
# Summary of the method: as §2
# [16] = system: Verconica persica (VERPE); test: Pre-emergence herbicidal action against VERPE
# Summary of the method: as §2
# [17] = system: Echinochloa crus-galli (ECHCG); test: Post-emergence herbicidal action against ECHCG
# Summary of the method: as §1
# Lolium rigidum (LOLRI) [18] = test: Post-emergence herbicidal action against LOLRI
# Summary of the method: as §1
# Viola tricolor (VIOTR) [19] = test: Post-emergence herbicidal action against VIOTR
# Summary of the method: as §1
# Setaria viridis (SETVI) [20] = test: Post-emergence herbicidal action against SETVI
# Summary of the method: as §1
# [21] = system: Matricaria inodora (MATIN); test: Pre-emergence herbicidal action against MATIN
# Summary of the method: as §2
# Avena fatua (AVEFA) [22] = test: Post-emergence herbicidal action against AVEFA; settings: visual rating about 3 weeks after treatment
# Summary of the method: as §1
# [23] = system: Verconica persica (VERPE); test: Post-emergence herbicidal action against VERPE
# Summary of the method: as §1
# [24] = system: Amaranthus retroflexus (AMARE); test: Post-emergence herbicidal action against AMARE; settings: 320 g/ha, visual rating about 3 weeks after treatment
# Summary of the method: as §1
# [25] = system: Alopecurus myosuroides (ALOMY); test: Post-emergence herbicidal action against ALOMY; settings: visual rating about 3 weeks after treatment vs untreated controls (100% = plants have died, 0% = like control plants)
# Summary of the method: as §1
# [26] = system: Polygonum convolvulus (POLCO); test: Post-emergence herbicidal action against POLCO
# Summary of the method: as §1
# [27] = 80 g/ha, visual scoring after about 3 weeks vs untreated controls
# [28] = Dosage column 320 g/ha (title prints 3200 g/ha), scored visually after about 3 weeks
smiles,measurement,setting,value
C[C@@H](Oc1nn(-c2nc(F)ccc2F)c(-c2cncc(F)c2)c1Cl)C(=O)O [Example I-159],Post-emergence action against MATIN in %,[1],80%
same,Post-emergence action against ORYSA in %,Oryza sativa (ORYSA),10%
same,Pre-emergence action against AMARE in %,[2]; 80 g/ha,90%
same,Pre-emergence action against AMARE in %,[2]; 320 g/ha,100%
same,Post-emergence action against DIGSA in %,[3]; 320 g/ha,80%
same,Pre-emergence action against DIGSA in %,[4]; [27],90%
same,Pre-emergence action against DIGSA in %,[4]; dosage 320 g/ha,100%
same,Pre-emergence action against LOLRI in %,Lolium rigidum (LOLRI) [5]; dosage 80 g/ha,90%
same,Pre-emergence action against LOLRI in %,Lolium rigidum (LOLRI) [5]; dosage 320 g/ha,100%
same,Pre-emergence action against ECHCG in %,[6]; dosage 80 g/ha,90%
same,Pre-emergence action against ECHCG in %,[6]; dosage 320 g/ha,90%
same,Pre-emergence action against ALOMY,[7]; 80 g/ha,80%
same,Pre-emergence action against ALOMY,[7]; 320 g/ha,90%
same,Pre-emergence action against VIOTR in %,"Viola tricolor (VIOTR) [8]; 320 g/ha, Viola tricolor",100%
same,Pre-emergence action against VIOTR in %,Viola tricolor (VIOTR) [8]; dosage 80 g/ha,100%
same,Pre-emergence action against SETVI in %,Setaria viridis (SETVI) [9]; dosage 80 g/ha,90%
same,Pre-emergence action against SETVI in %,Setaria viridis (SETVI) [9]; dosage 320 g/ha,100%
same,Pre-emergence action against AVEFA in %,Avena fatua (AVEFA) [10]; 320 g/ha,90%
same,Post-emergence action against ABUTH in %,[11],80%
same,Pre-emergence action against POLCO in %,[12]; dosage 80 g/ha,90%
same,Pre-emergence action against POLCO in %,[12]; dosage 320 g/ha,90%
same,Post-emergence action against PHBPU in %,[13]; dosage 80 g/ha,80%
same,Post-emergence action against PHBPU in %,[13]; dosage 320 g/ha,80%
same,Pre-emergence action against ABUTH,"[14]; 80 g/ha, scored visually after about 3 weeks vs untreated controls, 0% = like control plants",80%
same,Pre-emergence action against ABUTH,[14]; [28],80%
same,Pre-emergence action against PHBPU in %,[15]; dosage 80 g/ha,80%
same,Pre-emergence action against PHBPU in %,[15]; dosage 320 g/ha,90%
same,Pre-emergence action against VERPE in %,[16]; dosage 320 g/ha,100%
same,Post-emergence action against ECHCG in %,[17]; dosage 80 g/ha,80%
same,Post-emergence action against ECHCG in %,[17]; dosage 320 g/ha,90%
same,Post-emergence action against LOLRI in %,Lolium rigidum (LOLRI) [18]; dosage 320 g/ha,80%
same,Post-emergence action against VIOTR in %,Viola tricolor (VIOTR) [19]; 320 g/ha,80%
same,Post-emergence action against SETVI in %,Setaria viridis (SETVI) [20]; dosage 320 g/ha,80%
same,Pre-emergence action against MATIN in %,[21]; dosage 80 g/ha,90%
same,Pre-emergence action against MATIN in %,[21]; dosage 320 g/ha,90%
C[C@@H](Oc1nn(-c2nc(F)ccc2F)c(-c2cncc(F)c2)c1C1CC1)C(=O)O [Example I-180],Post-emergence action against AVEFA in %,Avena fatua (AVEFA) [22]; 80 g/ha,80%
same,Post-emergence action against AVEFA in %,Avena fatua (AVEFA) [22]; 320 g/ha,90%
same,Post-emergence action against MATIN in %,[1],90%
same,Pre-emergence action against AMARE in %,[2]; 80 g/ha,100%
same,Pre-emergence action against AMARE in %,[2]; 320 g/ha,100%
same,Post-emergence action against DIGSA in %,[3]; 80 g/ha,80%
same,Post-emergence action against DIGSA in %,[3]; 320 g/ha,80%
same,Pre-emergence action against DIGSA in %,[4]; [27],90%
same,Pre-emergence action against DIGSA in %,[4]; dosage 320 g/ha,100%
same,Pre-emergence action against LOLRI in %,Lolium rigidum (LOLRI) [5]; dosage 80 g/ha,100%
same,Pre-emergence action against LOLRI in %,Lolium rigidum (LOLRI) [5]; dosage 320 g/ha,100%
same,Post-emergence action against VERPE in %,"[23]; 320 g/ha, VERPE",90%
same,Post-emergence action against VERPE in %,[23]; dosage 80 g/ha,80%
same,Pre-emergence action against ECHCG in %,[6]; dosage 80 g/ha,100%
same,Pre-emergence action against ECHCG in %,[6]; dosage 320 g/ha,100%
same,Post-emergence action against AMARE in %,[24],90%
same,Pre-emergence action against ALOMY,[7]; 80 g/ha,90%
same,Pre-emergence action against ALOMY,[7]; 320 g/ha,100%
same,Pre-emergence action against VIOTR in %,"Viola tricolor (VIOTR) [8]; 320 g/ha, Viola tricolor",100%
same,Pre-emergence action against VIOTR in %,Viola tricolor (VIOTR) [8]; dosage 80 g/ha,100%
same,Pre-emergence action against SETVI in %,Setaria viridis (SETVI) [9]; dosage 80 g/ha,100%
same,Pre-emergence action against SETVI in %,Setaria viridis (SETVI) [9]; dosage 320 g/ha,100%
same,Pre-emergence action against AVEFA in %,Avena fatua (AVEFA) [10]; 80 g/ha,90%
same,Pre-emergence action against AVEFA in %,Avena fatua (AVEFA) [10]; 320 g/ha,90%
same,Pre-emergence action against POLCO in %,[12]; dosage 80 g/ha,90%
same,Pre-emergence action against POLCO in %,[12]; dosage 320 g/ha,100%
same,Post-emergence action against ALOMY in %,[25]; 80 g/ha,90%
same,Post-emergence action against ALOMY in %,[25]; 320 g/ha,90%
same,Pre-emergence action against ABUTH,[14]; [28],80%
same,Pre-emergence action against PHBPU in %,[15]; dosage 80 g/ha,90%
same,Pre-emergence action against PHBPU in %,[15]; dosage 320 g/ha,90%
same,Pre-emergence action against VERPE in %,[16]; dosage 80 g/ha,100%
same,Pre-emergence action against VERPE in %,[16]; dosage 320 g/ha,100%
same,Post-emergence action against ECHCG in %,[17]; dosage 80 g/ha,80%
same,Post-emergence action against ECHCG in %,[17]; dosage 320 g/ha,90%
same,Post-emergence action against LOLRI in %,Lolium rigidum (LOLRI) [18]; dosage 80 g/ha,90%
same,Post-emergence action against LOLRI in %,Lolium rigidum (LOLRI) [18]; dosage 320 g/ha,90%
same,Post-emergence action against POLCO in %,[26]; dosage 80 g/ha,80%
same,Post-emergence action against POLCO in %,[26]; dosage 320 g/ha,90%
same,Post-emergence action against VIOTR in %,Viola tricolor (VIOTR) [19]; 80 g/ha,80%
same,Post-emergence action against VIOTR in %,Viola tricolor (VIOTR) [19]; 320 g/ha,80%
same,Post-emergence action against SETVI in %,Setaria viridis (SETVI) [20]; dosage 80 g/ha,80%
same,Post-emergence action against SETVI in %,Setaria viridis (SETVI) [20]; dosage 320 g/ha,90%
same,Pre-emergence action against MATIN in %,[21]; dosage 80 g/ha,90%
same,Pre-emergence action against MATIN in %,[21]; dosage 320 g/ha,90%
